Tests used:
[1] = Phase I clinical trial of AST-3424 in China: blood pharmacokinetics compared with US data; format: in vivo, human; conditions: Chinese and American patients, printed as 'almost lower than'
[2] = Toxicokinetics (D1+D8/21 Days) in rats; format: in vivo, Sprague-Dawley (SD) rats; conditions: AST-3424 3, 10, 30 mg/kg on D1, D8, D22, D29
[3] = Toxicokinetics (D1+D8/21 Days) in monkeys; format: in vivo, cynomolgus monkeys
[4] = test system: human lung cancer (H460-GFP) subcutaneous CDX model; experiment: Human lung cancer CDX efficacy model (QW×2 regimen); format: in vivo, nude mice; conditions: 15 mg/kg, BIW×4, I.V.; P<0.01
Protocol: Images of tumor burden in mice were non-invasively collected twice a week by a Fluor Vivo Model 100 imaging system, and the mean value of tumor area in each group was calculated based on imaging analysis results. […] The data from this experiment are the data for the H460 model in Example 3-1 of the aforementioned Patent Application 2 (see Table 5 and Figure 5 of this application).

[5] = test system: HuPrime® lung cancer LU5173 subcutaneous xenograft model; conditions: day 32 after first administration, AST-3424 1 mg/kg QD×5, 16 days off
Source text: (§1) For the experimental procedures and relevant evaluation indicators of the aforementioned solid tumor animal efficacy models, please refer to Examples 7, 8, and 9 in Patent Application 1, namely PCT/US2016/062114, with Publication No. WO2017/087428 (corresponding to Chinese Application CN201680044608.1, with Publication No. CN108290911B), Examples 3 and 4 in Patent Application 2, namely PCT/CN2021/078115, with Publication No. WO2022178821, and Research Literature 1. The aforementioned non-clinical animal efficacy models (PDX) mentioned in the present application are all similar to those in the aforementioned literatures, and the specific operation procedures thereof are not described herein again.
The LU5173 is a HuPrime® xenograft model established from a lung cancer (small cell lung carcinoma) tumor of a patient.
Efficacy was evaluated based on the relative tumor growth inhibition (TGI, %), and safety was evaluated based on animal body weight changes and mortality.

[6] = test system: HuPrime® lung cancer LU5161 subcutaneous xenograft model; conditions: day 29 after first administration, AST-3424 1 mg/kg QD×5, 16 days off
Source text: as §1
LU5161 is a HuPrime® xenograft model established from a lung tumor (small cell lung cancer) of a patient.
(§2) Efficacy was evaluated based on the relative tumor growth inhibition rate (TGI, %), and safety was evaluated based on animal body weight changes and mortality.

[7] = test system: HuPrime® pancreatic cancer PA2637 subcutaneous xenograft model; conditions: Day 36 after first administration, AST-3424 1 mg/kg QD×5, 16 days off
Source text: as §1
PA2637 is a HuPrime® xenograft model established from a pancreatic cancer tumor of a patient.
as §2

[8] = test system: HuPrime® pancreatic cancer PA9451 subcutaneous xenograft model; experiment: Pancreatic cancer PA9451 subcutaneous xenograft efficacy model; format: in vivo, BALB/c nude mice; conditions: 50 mg/kg, QD×30
[9] = test system: HuPrime® pancreatic cancer PA1170 subcutaneous xenograft model; experiment: Pancreatic cancer PA1170 subcutaneous xenograft efficacy model; format: in vivo, BALB/c nude mice; conditions: 50 mg/kg, QD×30

Q: For `O=P(O)(N1CC1)N1CC1` [AST-2660], which “concentrations after 8 hours” value [1] is on record?
A: lower than 1 ng/ml

Q: What about the “exposure on Day 29 compared to Day 1” value [2] of the same molecule?
A: decreased

Q: And the “exposure to AST-2660 as % of the AST-3424 exposure” value ([3]; Day 1)?
A: 27.2%

Q: And the “exposure to AST-2660 as % of the AST-3424 exposure” value ([3]; Day 29)?
A: 11.0%

Q: Which TGI [4] does the source give for `CC(=O)O[C@H]1C(=O)[C@@]2(C)[C@H]([C@H](OC(=O)c3ccccc3)[C@]3(O)C[C@H](OC(=O)[C@H](O)[C@@H](NC(=O)c4ccccc4)c4ccccc4)C(C)=C1C3(C)C)[C@]1(OC(C)=O)CO[C@@H]1C[C@@H]2O` [Taxol, reference compound] here?
A: 64%

Q: With `O=P1(NCCCl)OCCCN1CCCl` (stereo not drawn) [ifosfamide, reference compound] as the molecule, how does the “TGI (%)” value ([5]; QD×5 (P < 0.001), ifosfamide 6.0 mg/kg QD×5/week for 2 weeks (p > 0.05)) read?
A: 44.45%

Q: And the mean tumor volume ([5]; QD×5, ifosfamide 6.0 mg/kg QD×5/week for 2 weeks, vehicle 2276.68)?
A: 1229.15 mm^3

Q: And the “TGI (%)” value ([6]; QD×5 (P < 0.001), ifosfamide 60 mg/kg QD×5/week for 2 weeks (p > 0.05))?
A: 27.39%

Q: What about the mean tumor volume ([6]; QD×5, ifosfamide 60 mg/kg QD×5/week for 2 weeks, negative control 2238.97) of the same molecule?
A: 1636.39 mm^3

Q: And the “TGI (%)” value ([7]; QD×5 (P < 0.001), ifosfamide 60 mg/kg QD×5/week for 2 weeks (no statistical difference))?
A: 2.74%

Q: What about the mean tumor volume ([7]; QD×5, ifosfamide 60 mg/kg QD×5/week for 2 weeks, vehicle 977.46) of the same molecule?
A: 938.33 mm^3

Q: With `O=C(c1cc(Cc2n[nH]c(=O)c3ccccc23)ccc1F)N1CCN(C(=O)C2CC2)CC1` [olaparib, reference compound] as the molecule, how does the “TGI (%)” value ([8]; Day 36, P < 0.001) read?
A: 47.88%

Q: What about the mean tumor volume ([8]; Day 36 after first administration) of the same molecule?
A: 344.84 mm^3

Q: And the “TGI (%)” value ([9]; Day 30, P > 0.05)?
A: 57.66%

Q: What about the mean tumor volume ([9]; Day 30 after first administration) of the same molecule?
A: 517.75 mm^3

— patent EP4775209A1 (Ascentawits Pharmaceuticals, Ltd., priority 2023, dated 2025)
